In ChEMBL document CHEMBL3046715, “In vivo evaluation of substituted 3-phenyl,7-methoxy-benzopyrans as modified estrogens” (2010):

Tests used:
Assay type in all cases: functional
[1] = system: Rattus norvegicus; assay: Estrogen agonistic activity in immature Rattus norvegicus Sprague-Dawley (rat) assessed as gain in uterine weight at 10 mg/kg, po qd for 3 days
[2] = system: Rattus norvegicus; assay: Estrogen antagonistic activity in immature Rattus norvegicus Sprague-Dawley (rat) assessed as inhibition of ethynylestradiol-induced increase in uterine weight at 10 mg/kg, po qd for 3 days; conditions: 72 h
[3] = system: Rattus norvegicus; assay: Estrogen agonistic activity in immature Rattus norvegicus Sprague-Dawley (rat) assessed as uterine weight at 0.02 mg/kg, po qd for 3 days (reference value: 14 +/- 1.3 to 22.23 +/- 1.2 mg)

| SMILES | Activity [1] | inhibition in vivo at 10 mg/kg [2] | Activity [3] |
| --- | --- | --- | --- |
| COc1ccc(C2COc3cc(OCCCC(C)(C)O)ccc3C2)cc1 (configuration not stated) | 31% | 6% |  |
| CCC(O)(CC)CCCOc1ccc2c(c1)OCC(c1ccc(OC)cc1)C2 (configuration not stated) | 48% | 3% |  |
| O=C(c1ccc(OCCN2CCCCC2)cc1)c1c(-c2ccc(O)cc2)sc2cc(O)ccc12 [RALOXIFENE] | 90% | 57% |  |
| C#C[C@]1(O)CC[C@H]2[C@@H]3CCc4cc(O)ccc4[C@H]3CC[C@@]21C [ETHINYL ESTRADIOL] | 480% |  | 85 mg |
| COc1ccc2c(c1)OC(C)(C)C(c1ccccc1)C2c1ccc(OCCN2CCCC2)cc1 (configuration not stated) [ORMELOXIFENE] | 156% | 67% |  |
| C=C1CC[C@H](O)C/C1=C/C=C1\CCC[C@]2(C)[C@@H]([C@H](C)CCCC(C)C)CC[C@@H]12 [CHOLECALCIFEROL] | 82% | 39% |  |
